≈ marks a conversion by molar mass, not a printed value.
Key:
mice [1] = test: Mouse toxicity, oral, Table I; type: in vivo; details: for mouse toxicity (head is a drawing): oral administration
Procedure: (§1) In addition, DCP was tested for mouse toxicity, fish toxicity and biodegradibility.

[2] = system: houseflies, susceptible strain (SNAIDM); test: Insecticidal activity, housefly, susceptible strain (SNAIDM), Table I; type: in vivo; details: for SNAIDM alone (insecticidal activity; head is a drawing): compound alone; for SNAIDM with P.B. (insecticidal activity; head is a drawing): with piperonyl butoxide synergist
From the text: (§2) Metabolic studies involving insects, mice, and fish and a model ecosystem (such as described in U.S. Pat. No. 3,787,505) and insecticidal activity studies generally involving flies and mosquitoes have shown that both the symmetrical and the asymmetrical compounds of the present invention are effective. Thus, the new compounds can be represented by the general formula: [drawing 3] where R1 is H or Cl and R2 is CH3 or Cl, X and X^1 are the same or different and each is selected from the group consisting of C1 to C3 alkyl groups and C1 to C4 alkoxy groups.
as §1

fish = test: Fish toxicity, Table I; type: in vivo
Procedure: as §1

[3] = system: houseflies, DDT resistant strain (RSP); test: Insecticidal activity, housefly, resistant strain (RSP), Table I; type: in vivo; details: for RSP alone (insecticidal activity; head is a drawing): compound alone; for RSP with P.B. (insecticidal activity; head is a drawing): with piperonyl butoxide synergist
From the text: as §2, §1

[4] = Biodegradability studies, general statement
From the text: as §2, §1

Culex fatigans larvae = test: Insect toxicity, Culex fatigans larvae; type: in vivo; details: Culex quinquefasciatus
Culex fatigans = test: Persistence on plywood surfaces of test huts, Culex fatigans; type: in vivo; details: adult mosquitoes
Procedure: (§3) The persistence of some of the compounds of the present invention was evaluated and compared with that of ethoxychlor. In these tests, the compounds were applied to the plywood surfaces of test huts and the mortalities of adult mosquitoes contained in the huts were measured to determine the number of weeks that 50% mortality continued to occur.

[5] = system: green sunfish (Lepomis cyanellus); test: Green sunfish toxicity over a period of time; type: in vivo; details: initial concentration 0.1 ppm
From the text: The compounds of Example III, V, XI, XIV and XXI were further tested and compared with ethoxychlor to determine fish toxicities over a period of time. In these tests, green sunfish (Lepomis cyanellus) were subject to an initial concentration dosage of 0.1 ppm and the number of days that 100 percent mortalities occurred was observed.

Mouse toxicity, LD50 = type: in vivo, mice; details: in vivo
mice [6] = test: Mouse toxicity, LD50; type: in vivo; details: versus ethoxychlor
[7] = system: Anopheles albimanus larvae; test: Insect toxicity, Anopheles albimanus larvae; type: in vivo
Phormia regina = test: Insect toxicity, Phormia regina; type: in vivo
[8] = system: Musca domestica (NAIDM strain); test: Insect toxicity, Musca domestica NAIDM strain; type: in vivo
[9] = system: Anopheles albimanus adults; test: Insect toxicity, Anopheles albimanus adults; type: in vivo
[10] = system: Musca domestica Rsp strain; test: Insect toxicity, Musca domestica Rsp strain, DDT-resistant; type: in vivo
Anopheles albimanus = test: Persistence on plywood surfaces of test huts, Anopheles albimanus; type: in vivo; details: adult mosquitoes
Procedure: as §3

[11] = system: insects (flies and mosquitoes); test: Insecticidal activity, general statement; type: in vivo; details: versus ethoxychlor
From the text: as §2

Culex fatigans adults = test: Insect toxicity, Culex fatigans adults; type: in vivo

Q: For `Clc1ccc(C(c2ccc(Cl)cc2)C(Cl)(Cl)Cl)cc1` [DDT, 1,1,1-trichloro-2,2-bis(p-chlorophenyl) ethane, reference compound], which “mouse toxicity (head is a drawing)” value (mice [1]) is on record?
A: Its value is 200.

Q: And the “SNAIDM alone (insecticidal activity; head is a drawing)” value [2]?
A: Its value is 14.0.

Q: And the “SNAIDM with P.B. (insecticidal activity; head is a drawing)” value [2]?
A: Its value is 5.5.

Q: What about the “fish toxicity (head is a drawing)” value (fish) of the same compound?
A: The value was 0.30.

Q: And the “RSP alone (insecticidal activity; head is a drawing)” value ([3]; resistant strain)?
A: Its value is 270.

Q: What about the “RSP with P.B. (insecticidal activity; head is a drawing)” value ([3]; resistant strain) of the same compound?
A: The value was 70.

Q: For `COc1ccc(C(c2ccc(OC)cc2)C(C)Cl)cc1` (stereo not drawn) [DCP, 1,1-bis(p-methoxyphenyl)-2-chloropropane], which “mouse toxicity (head is a drawing)” value (mice [1]) is on record?
A: The value was over 1000.

Q: And the “mouse toxicity (in words)” value (mice [1]; oral administrations to mice)?
A: Its value is “considerably less toxic than DDT and comparable to methoxychlor”.

Q: And the “toxicity to susceptible strain of houseflies, alone (in words)” value ([2]; alone)?
A: The value was “not as toxic as DDT or methoxychlor”.

Q: What about the “SNAIDM alone (insecticidal activity; head is a drawing)” value [2] of the same compound?
A: Its value is 935.

Q: And the “toxicity to susceptible strain of houseflies with piperonyl butoxide (in words)” value ([2]; with P.B.)?
A: The value was “at least as toxic as methoxychlor and considerably more toxic than DDT”.

Q: And the “SNAIDM with P.B. (insecticidal activity; head is a drawing)” value [2]?
A: Its value is 3.5.

Q: And the “fish toxicity (head is a drawing)” value (fish)?
A: Its value is over 3.

Q: And the “fish toxicity (in words)” value (fish)?
A: The value was “less toxic than either DDT or methoxychlor”.

Q: What about the “toxicity to DDT resistant strain of houseflies, alone (in words)” value ([3]; DDT resistant strain, alone) of the same compound?
A: The value was “not as toxic as DDT or methoxychlor”.

Q: What about the “RSP alone (insecticidal activity; head is a drawing)” value ([3]; resistant strain) of the same compound?
A: The value was over 500.

Q: And the “toxicity to resistant strain of houseflies with piperonyl butoxide (in words)” value ([3]; resistant strain, with P.B.)?
A: The value was “at least as toxic as methoxychlor and considerably more toxic than DDT”.

Q: What about the “RSP with P.B. (insecticidal activity; head is a drawing)” value ([3]; resistant strain) of the same compound?
A: Its value is 4.1.

Q: What about the “biodegradability (in words)” value [4] of the same compound?
A: The value was “more biodegradable than methoxychlor”.

Q: Which results are given for `COc1ccc(C(c2ccc(OC)cc2)C(Cl)(Cl)Cl)cc1` [Methoxychlor, reference compound]?
A: SNAIDM alone (insecticidal activity; head is a drawing) [2]: 45.0; SNAIDM with P.B. (insecticidal activity; head is a drawing) [2]: 3.5; fish toxicity (head is a drawing) (fish): 1; RSP alone (insecticidal activity; head is a drawing) ([3]; resistant strain): 48; RSP with P.B. (insecticidal activity; head is a drawing) ([3]; resistant strain): 4.6

Q: With `CCOc1ccc(C(c2ccc(OCC)cc2)C(C)C)cc1` [Example XI] as the compound, how does the LC50 (Culex fatigans larvae) read?
A: Its LC50 is 0.08 µg/mL (≈ 0.268 µM).

Q: What about the “Culex fatigans, P50 (number of weeks that at least 50% mortality occurred)” value (Culex fatigans) of the same compound?
A: Its value is 40 weeks.

Q: What about the “Number of days 100% mortality” value [5] of the same compound?
A: Its value is over 35 days.

Q: What about the LD50 (Mouse toxicity, LD50) of the same compound?
A: The LD50 was at least 1000 mg/kg.

Q: And the “safety to mice relative to ethoxychlor” value (mice [6])?
A: The value was “at least five times safer to mice than is ethoxychlor”.

Q: What about the LC50 [7] of the same compound?
A: The LC50 was 0.028 µg/mL (≈ 0.0938 µM).

Q: And the LD50 (Phormia regina)?
A: Its LD50 is 14.5 mg/kg.

Q: What about the LD50 ([8]; Musca domestica, without PB) of the same compound?
A: The LD50 was 21.5 mg/kg.

Q: And the “Musca domestica NAIDM (w/PB) LD50” value ([8]; with PB)?
A: Its value is 3.5 µg/g.

Q: What about the “Anopheles albimanus adults LC50” value [9] of the same compound?
A: Its value is 4.5 ug/cm^2.

Q: What about the LD50 ([10]; Musca domestica, without PB) of the same compound?
A: The LD50 was 38 mg/kg.

Q: And the “Musca domestica Rsp strain w/PB LD50” value ([10]; with PB)?
A: The value was 12.5 µg/g.

Q: And the “Anopheles albimanus, P50 (number of weeks that at least 50% mortality occurred)” value (Anopheles albimanus)?
A: The value was over 44 weeks.

Q: What about the “insecticidal activity relative to ethoxychlor” value [11] of the same compound?
A: The value was “at least generally comparable to ethoxychlor”.

Q: What about the “Culex fatigans adults-LC50” value (Culex fatigans adults) of the same compound?
A: The value was 14.3 ug/cm^2.

Reference: patent publication US4118424A, “Biodegradable insecticides” (priority 1976, dated 1978)
